Data reported in patent US8088758B2, “17β-hydroxysteroid dehydrogenase type I inhibitors” (Abbott Products GmbH, priority 2003, dated 2012).

Target: T1, recombinant human 17β-hydroxysteroid dehydrogenase type 1 (Homo sapiens, UniProt P14061)
T1 construct: made in house; host or cells: Sf9 insect cells (baculovirus, Bac to Bac Expression System)
T1 sequence (P14061 1-328): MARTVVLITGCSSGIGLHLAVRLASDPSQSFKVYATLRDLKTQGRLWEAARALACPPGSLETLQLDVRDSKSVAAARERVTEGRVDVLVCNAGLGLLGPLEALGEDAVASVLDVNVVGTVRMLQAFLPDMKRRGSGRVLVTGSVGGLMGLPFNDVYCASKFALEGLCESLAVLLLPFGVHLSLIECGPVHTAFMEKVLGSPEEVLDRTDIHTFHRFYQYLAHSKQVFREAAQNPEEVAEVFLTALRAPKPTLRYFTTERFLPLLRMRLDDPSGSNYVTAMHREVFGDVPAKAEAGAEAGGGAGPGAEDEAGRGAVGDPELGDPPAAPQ
Experiment: Inhibition of recombinant human 17β-hydroxysteroid dehydrogenase type 1 (conversion of 3H-estrone to estradiol, HPLC)
Type: biochemical
Conditions: 30 nM 3H-estrone, 1 mM NADPH, 30 min at RT; for inhibition at 0.1 µM: inhibitor 100 nM, read-out: Inhibition of rec. 17β-HSD1 (% inhibition), 100 nM; for inhibition at 1 µM: inhibitor 1 μm, read-out: Inhibition of rec. 17β-HSD1 (% inhibition), 1 μm
Description: 1. Inhibition of the 17β-hydroxysteroid Dehydrogenase Type 1 Enzyme
17β-HSD1 Purification: Recombinant baculovirus was generated by the “Bac to Bac Expression System” (Invitrogen). Recombinant bacmid was transfected to Sf9 insect cells using “Cellfectin Reagent” (Invitrogen). 60 h later cells were harvested; the microsomal fraction was isolated as described by Puranen et al. 1994. Aliquots were stored frozen until determination of enzymatic activity.
Assay—Inhibition of Recombinant Human 17β-hydroxysteroid Dehydrogenase Type 1:
Recombinant protein (0.1 μg/ml) was incubated in 20 mM KH2PO4 pH 7.4 with 30 nM 3H-estrone and 1 mM NADPH for 30 min at RT, in the presence of potential inhibitors at concentrations of 1 μM or 0.1 μM. Inhibitor stock solutions were prepared in DMSO. Final concentration of DMSO was adjusted to 1% in all samples. The enzyme reaction was stopped by addition of 10% trichloroacetic acid (final concentration). Samples were centrifuged in a microtiter plate at 4000 rpm for 10 min. Supernatants were applied to reverse phase HPLC on a Waters Symmetry C18 column, equipped with a Waters Sentry Guard column. Isocratic HPLC runs were performed at RT at a flow rate of 1 ml/min of acetonitrile:water 48:52 as running solvent. Radioactivity was monitored in the eluate by a Packard Flow Scintillation Analyzer. Total radioactivity for estrone and estradiol were determined in each sample and percent conversion of estrone to estradiol was calculated according to the following formula:
Percent inhibition was calculated as follows: % inhibition=100−% conversion

## C[C@]12CC[C@@H]3c4ccc(O)cc4CC[C@H]3[C@@H]1[C@H](CCCO)CC2=O [Example 823, 3-Hydroxy-15β-(3-Hydroxypropyl)-estra-1,3,5(10)-trien-17-one]
  inhibition at 0.1 µM: 76.1%
  inhibition at 1 µM: 97%

## COc1ccc2c(c1)CC[C@H]1[C@@H]3[C@H](CCCCOC(=O)Nc4cccc(F)c4)CC(=O)[C@@]3(C)CC[C@H]21 [Example 751]
  inhibition at 0.1 µM: 27.7%
  inhibition at 1 µM: 67.7%

## CCOC(=O)Cc1csc(NC(=O)CC[C@@H]2CC(=O)[C@@]3(C)CC[C@@H]4c5ccc(OC)cc5CC[C@H]4[C@H]23)n1 [Example 314]
  inhibition at 0.1 µM: 33.6%
  inhibition at 1 µM: 62.1%

## C[C@]12CC[C@@H]3c4ccc(O)cc4CC[C@H]3[C@@H]1[C@@H](CNS(=O)(=O)c1cccs1)CC2=O [Example 662]
  inhibition at 0.1 µM: 76.9%
  inhibition at 1 µM: 94.8%

## COc1ccc2c(c1)CC[C@H]1[C@@H]3[C@H](CCCCCC(=O)NCc4ccccc4OC)CC(=O)[C@@]3(C)CC[C@H]21 [Example 360]
  inhibition at 0.1 µM: 41.5%
  inhibition at 1 µM: 85.6%

## COc1ccc2c(c1)CC[C@H]1[C@@H]3[C@H](CCCCC(=O)NCc4cccnc4)CC(=O)[C@@]3(C)CC[C@H]21 [Example 338]
  inhibition at 0.1 µM: 28.7%
  inhibition at 1 µM: 84.6%

## Cc1cccc2c(CCNC(=O)CCC[C@@H]3CC(=O)[C@@]4(C)CC[C@@H]5c6ccc(O)cc6CC[C@H]5[C@H]34)c[nH]c12 [Example 36, 4-(3-Hydroxy-17-oxo-estra-1,3,5(10)-trien-15β-yl)-N-[2-(7-methyl-1H-indol-3-yl)-ethyl]-butyramide]
  inhibition at 0.1 µM: 72.9%
  inhibition at 1 µM: 94.3%

## COc1ccc2c(c1)CC[C@H]1[C@@H]3[C@H](CCCCCC(=O)N4CCSCC4)CC(=O)[C@@]3(C)CC[C@H]21 [Example 355]
  inhibition at 0.1 µM: 34.4%
  inhibition at 1 µM: 85.1%

## C[C@]12CC[C@@H]3c4ccc(O)cc4CC[C@H]3[C@@H]1[C@H](CCCC(=O)NCc1ccc(F)cc1F)CC2=O [Example 37, N-(2,4-Difluoro-benzyl)-4-(3-hydroxy-17-oxo-estra-1,3,5(10)-trien-15β-yl)-butyramide]
  inhibition at 0.1 µM: 47.4%
  inhibition at 1 µM: 87.2%

## CNC(=O)CCC[C@@H]1CC(=O)[C@@]2(C)CC[C@@H]3c4ccc(O)cc4CC[C@H]3[C@H]12 [Example 4A, 4-(3-Hydroxy-17-oxo-estra-1,3,5(10)-trien-15β-yl)-N-methyl-butyramide]
  inhibition at 0.1 µM: 47.1%
  inhibition at 1 µM: 66%

## COc1ccc2c(c1)CC[C@H]1[C@@H]3[C@H](CCC(=O)NCc4ccc(Cl)cc4)CC(=O)[C@@]3(C)CC[C@H]21 [Example 323]
  inhibition at 0.1 µM: 28.5%
  inhibition at 1 µM: 72.7%

## CN(C[C@H]1CC(=O)[C@@]2(C)CC[C@@H]3c4ccc(O)cc4CC[C@H]3[C@H]12)S(=O)(=O)c1ccccc1 [Example 684]
  inhibition at 0.1 µM: 31.3%
  inhibition at 1 µM: 86.9%

## C[C@]12CC[C@@H]3c4ccc(O)cc4CC[C@H]3[C@@H]1[C@@H](CCCC(=O)NCc1ccccc1)CC2=O [Example 39, N-Benzyl-4-(3-hydroxy-17-oxo-estra-1,3,5(10)-trien-15α-yl)-butyramide]
  inhibition at 0.1 µM: 41.8%
  inhibition at 1 µM: 82.4%

## COc1ccc2c(c1)CC[C@H]1[C@@H]3[C@H](CCC(=O)N(C)C4CCCCC4)CC(=O)[C@@]3(C)CC[C@H]21 [Example 313]
  inhibition at 0.1 µM: 62.6%
  inhibition at 1 µM: 93%

## COc1ccc2c(c1)CC[C@H]1[C@@H]3[C@H](CCCCC(=O)NCc4ccc(Cl)cc4)CC(=O)[C@@]3(C)CC[C@H]21 [Example 343]
  inhibition at 0.1 µM: 47.1%
  inhibition at 1 µM: 86%

## COc1ccc2c(c1)CC[C@H]1[C@@H]3[C@H](CCC(=O)NC4CCCCC4)CC(=O)[C@@]3(C)CC[C@H]21 [Example 310]
  inhibition at 0.1 µM: 67.9%
  inhibition at 1 µM: 91.7%

## COc1ccc2c(c1)CC[C@H]1[C@@H]3[C@H](CCCCNC(=O)NCc4ccccc4)CC(=O)[C@@]3(C)CC[C@H]21 [Example 477]
  inhibition at 0.1 µM: 31.7%
  inhibition at 1 µM: 79.5%

## CN(C[C@H]1CC(=O)[C@@]2(C)CC[C@@H]3c4ccc(O)cc4CC[C@H]3[C@H]12)S(=O)(=O)c1ccc(F)cc1 [Example 685]
  inhibition at 0.1 µM: 36%
  inhibition at 1 µM: 85.6%

## COc1ccc2c(c1)CC[C@H]1[C@@H]3[C@H](CCCNC(=O)NCc4ccccc4)CC(=O)[C@@]3(C)CC[C@H]21 [Example 452]
  inhibition at 0.1 µM: 38.6%
  inhibition at 1 µM: 82.9%

## COc1ccc(S(=O)(=O)N(C)C[C@H]2CC(=O)[C@@]3(C)CC[C@@H]4c5ccc(O)cc5CC[C@H]4[C@H]23)cc1 [Example 688]
  inhibition at 0.1 µM: 47.4%
  inhibition at 1 µM: 91.3%

## COc1ccc2c(c1)CC[C@H]1[C@@H]3[C@H](CCC(=O)NCc4ccc5c(c4)OCO5)CC(=O)[C@@]3(C)CC[C@H]21 [Example 315]
  inhibition at 0.1 µM: 29%
  inhibition at 1 µM: 74.4%

## COc1ccc2c(c1)CCC1C2CC[C@]2(C)C(=O)C[C@@H](CCCC(=O)NCCc3ccc(O)cc3)C12 (stereo partly shown) [Example 22]
  inhibition at 0.1 µM: 27.3%
  inhibition at 1 µM: 57.8%

## COc1ccc2c(c1)CC[C@H]1[C@@H]3[C@H](CCCNC(=O)NC(C)C)CC(=O)[C@@]3(C)CC[C@H]21 [Example 449]
  inhibition at 0.1 µM: 26%
  inhibition at 1 µM: 82.7%
